According to US8729056B2, “Preventive and/or therapeutic agent of hand-foot syndrome” (Ono Pharmaceutical Co., Ltd., priority 2010, dated 2014):

Tests used:
[1] = test system: Hand-Foot Syndrome caused by sunitinib malate administration; experiment: Case 2: effect of imidafenacin on Hand-Foot Syndrome caused by sunitinib malate in a kidney cancer patient; type: in vivo, human; settings: imidafenacin combined with urea ointment, heparinoid ointment and clobetasol propionate ointment, after eight days of such treatment
Description: (§1) In the present invention, the preventive and/or treatment effect of the anticholinergic drug against Hand-Foot Syndrome can be evaluated, for example, by the criteria of Hand-Foot Syndrome in Table 1, Table 2, and Table 3 as shown below. Table 1 is the criteria proposed by Blum, and appeared on page 485-493 in volume 17 of Journal Clinical Oncology published in 1999. Grade 0 is not referred to in this table, but it is understood as grade 0 if no symptom is observed. Table 2 is the National Cancer Institute-Common Toxicity Criteria Version 2.0 (NCI-CTC v2.0), and Table 3 is the National Cancer Institute-Common Terminology Criteria for Adverse Events Version 3.0 (NCI-CTCAE v3.0). Grade 0 is also not referred to in Table 3, but it is understood as grade 0 if no symptom is observed.

[2] = test system: Hand-Foot Syndrome caused by sorafenib tosilate administration; experiment: Cases 3-6: effect of anticholinergic drugs on Hand-Foot Syndrome caused by sorafenib tosilate in kidney cancer patients; type: in vivo, human
Description: as §1
We examined the effect of imidafenacin in a patient with kidney cancer who developed Hand-Foot Syndrome caused by sorafenib tosilate administration (sorafenib 800 mg/day).
We examined the effect of imidafenacin in a patient with kidney cancer who developed Hand-Foot Syndrome caused by sorafenib tosilate administration.
From this point, Imidafenacin 0.1 mg was orally administered to the patient twice a day in addition to the urea ointment.
We examined the effect of solifenacin succinate in a patient with kidney cancer who developed Hand-Foot Syndrome caused by sorafenib tosilate administration (sorafenib 800 mg/day).
We examined the effect of tolterodine tartrate in a patient with kidney cancer who developed Hand-Foot Syndrome caused by sorafenib tosilate administration.

[3] = WO1999/58478; cited from earlier work
[4] = sweat from patients with Hand-Foot Syndrome administered the drug; cited from earlier work
[5] = compared with tolterodine; Pharmacology and Toxicology Vol. 81, 1997; cited from earlier work
Hand-Foot Syndrome = settings: patients with highest Hand-Foot Syndrome grade of 3; on average; Phase 2 clinical study in Japan; cited from earlier work

Cc1nccn1CCC(C(N)=O)(c1ccccc1)c1ccccc1 [imidafenacin, 4-(2-Methyl-1H-imidazole-1-yl)-2,2-diphenylbutanamide]
recovery from Hand-Foot Syndrome [1]: full recovery
recurrence of Hand-Foot Syndrome ([2]; case 3, after full recovery, continuous administration of imidafenacin and the moisturizing agent): prevented
recovery from Hand-Foot Syndrome ([2]; case 3, imidafenacin continued in combination with heparinoid cream, after 22 days): full recovery

CC(C)C(=O)Oc1ccc(CO)cc1[C@H](CCN(C(C)C)C(C)C)c1ccccc1 [Fesoterodine, 2-[(1R)-3-(dipropan-2-ylamino)-1-phenylpropyl]-4-(hydroxymethyl)phenyl 2-methylpropanoate]
metabolism after oral administration [3]: rapidly is metabolized to the 5-hydroxymethyl derivative

Cc1ncc(CO)c(CO)c1O.Cl [pyridoxine hydrochloride]
change of Hand-Foot Syndrome ([2]; case 6, grade 3, urea ointment in addition to pyridoxine hydrochloride, sorafenib 800 mg/day, without tolterodine tartrate): no improvements

O=C(O[C@H]1CN2CCC1CC2)N1CCc2ccccc2[C@@H]1c1ccccc1 [solifenacin succinate, (3R)-1-Azabicyclo[2.2.2]oct-3-yl(1S)-1-phenyl-3,4-dihydroisoquinoline-2(1H)-carboxylate]
recurrence of Hand-Foot Syndrome ([2]; case 5, continuous administration of solifenacin succinate after full recovery): prevented
recovery from Hand-Foot Syndrome ([2]; case 5, solifenacin succinate 5 mg orally once a day, started at grade 2, 28 days after beginning): full recovery

COc1cccc2c1C(=O)c1c(O)c3c(c(O)c1C2=O)C[C@@](O)(C(=O)CO)C[C@@H]3O[C@H]1C[C@H](N)[C@H](O)[C@H](C)O1 [doxorubicin]
drug substance in sweat [4]: detected

Cc1nc(-c2ccccc2)nc(SCc2ccc(Cl)cc2)c1CO [5-hydroxymethyl derivative]
anticholinergic activity [5]: equivalent to tolterodine

CNC(=O)c1cc(Oc2ccc(NC(=O)Nc3ccc(Cl)c(C(F)(F)F)c3)cc2)ccn1 [sorafenib tosilate]
drug substance in sweat [4]: not detected

CCCCCOC(=O)Nc1nc(=O)n([C@@H]2O[C@H](C)[C@@H](O)[C@H]2O)cc1F [capecitabine]
period for recovery of Hand-Foot Syndrome after interruption (Hand-Foot Syndrome): about two to three
